Measured values from patent US6251894A, “1-(1,2-disubstituted piperidinyl)-4 (fused imidazole)-piperidine derivatives” (Janssen Pharmaceuticals N.V., priority 1995, dated 2001).
Like-named read-outs stand apart in the source and are kept apart here.

What was measured:
[1] = test system: Substance P Induced Relaxation of the Pig Coronary Arteries; experiment: Antagonism of substance P induced relaxation of the pig coronary arteries; conditions: 30 min incubation
Protocol: Antagonism of Substance P Induced Relaxation of the Pig Coronary Arteries
Segments of coronary arteries taken from pigs (killed by injection of an overdose of sodium pentobarbital) were inverted and mounted for recording of isometric tension in organ baths (volume 20 ml) with the endothelium at the outside. The preparations were bathed in Krebs-Henseleit solution. The solution was kept at 37° C. and gassed with a mixture of O2 /CO2 (95/5). After stabilisation of the preparations, prostaglandin F2α (10^-5 M) was administered to induce a contraction. This was repeated until contractile responses became stable. Then prostaglandin F2α was again administered and substance P (3×10^-10 M and 10^-9 M cumulatively) was added. Substance P induced endothelium dependent relaxations. After washing away the agonists, a known concentration of a compound of formula (I) was added. After an incubation period of 30 minutes, prostaglandin F2α (10^-5 M) and the same concentrations of substance P as described above were again administered in the presence of the compound to be tested.

[2] = test system: Substance P Induced Plasma Extravasation; experiment: Antagonism of substance P induced plasma extravasation in guinea-pigs; format: in vivo, guinea-pig; conditions: Cavia porcellus, sc, s.c., 1 hour prior to substance P
Protocol: Antagonism of Substance P Induced Plasma Extravasation in Guinea-pigs
Plasma travasation was induced by injection of substance P (2 mg/kg) in the femoral artery of female guinea-pigs. Evans Blue dye (30 mg/kg) was injected simultaneously. The test compound or solvent was administered subcutaneous (s.c.) or orally (p.o.) 1 hour prior to substance P injection. 10 minutes after challenge, the animals were checked for blue colouring (a direct measure for plasma extravasation) of the nose, the forepaws, and the conjunctiva. 30 minutes after challenge, the animals were sacrificed by CO2 gas inhalation and checked for blue colouring of the trachea and the urinary bladder. […]

[3] = test compound concentration 3 × 10^-9 (unit not given)
[4] = test compound concentration 3 × 10^-8 (unit not given)
[5] = 10 min, conjunctiva, read-out: lowest active dose (LAD), conjunctiva
[6] = 10 min, forepaws, read-out: lowest active dose (LAD), forepaws
[7] = 10 min, nose, read-out: lowest active dose (LAD), nose
[8] = 0.5 h, trachea, read-out: lowest active dose (LAD), trachea
[9] = 0.5 h, urinary bladder, read-out: lowest active dose (LAD), urinary bladder

SMILES | % inhibition of the response to 10^-9 M substance P [1, 3] | other results
O=C(c1cc(C(F)(F)F)cc(C(F)(F)F)c1)N1CCC(N2CCC(C3c4ccccc4CCn4c3nc3ccccc34)CC2)CC1Cc1ccc(Cl)c(Cl)c1 (centres unmarked) [Compound 64] | 26.4% | –
Cc1cc(C)cc(C(=O)N2CCC(N3CCC(=C4c5cccc(C)c5CCn5ccnc54)CC3)CC2Cc2ccccc2)c1 (centres unmarked) [Compound 29] | 8.1% | –
Cc1cc(C)cc(C(=O)N2CC[C@H](N3CCC(C4c5ccccc5Cn5c4nc4ccccc45)CC3)C[C@H]2Cc2ccccc2)c1 (some centres unmarked) [Compound 70] | 31.2% | –
Cc1ccc2c(c1)CCn1ccnc1C2=C1CCN([C@H]2CCN(C(=O)c3cc(C(F)(F)F)cc(C(F)(F)F)c3)[C@@H](Cc3ccccc3)C2)CC1 (relative stereo) [Compound 50] | 25% | –
O=C(c1cc(C(F)(F)F)cc(C(F)(F)F)c1)N1CC[C@H](N2CCC(=C3c4ccccc4CCn4c(Cl)cnc43)CC2)C[C@@H]1Cc1ccccc1 (relative stereo) [Compound 62] | 49.0% | –
O=C(c1ccc2[nH]ccc2c1)N1CC[C@@H](N2CCC(=C3c4ccccc4CCn4ccnc43)CC2)C[C@@H]1Cc1ccccc1 (relative stereo) [Compound 81] | 2.2% | –
O=C(c1cnc2ccccc2n1)N1CCC(N2CCC(C3c4ccccc4Cn4c3nc3ccccc34)CC2)CC1Cc1ccccc1 (centres unmarked) [Compound 93] | 3.1% | –
O=C(c1cc(C(F)(F)F)cc(C(F)(F)F)c1)N1CCC(N2CCC(C3c4ccccc4Cn4ccnc43)CC2)CC1Cc1ccccc1 (centres unmarked) [Compound 115] | 60.2% | –
O=C(c1cc(C(F)(F)F)cc(C(F)(F)F)c1)N1CC[C@@H](N2CCC(C3c4ccccc4Cn4ccnc43)CC2)C[C@@H]1Cc1ccccc1 (some centres unmarked) [Compound 116] | 69.6% | –
Cc1c(C(=O)N2CC[C@@H](N3CCC(C4c5ccccc5Cn5c4nc4ccccc45)CC3)C[C@@H]2Cc2ccccc2)oc2ccccc12 (some centres unmarked) [Compound 101] | 11.8% | –
Cc1cc(C)cc(C(=O)N2CC[C@H](N3CCC(=C4c5ccccc5CCn5c(Cl)cnc54)CC3)C[C@@H]2Cc2ccccc2)c1 (relative stereo) [Compound 43] | 16% | –
O=C(c1cc(C(F)(F)F)cc(C(F)(F)F)c1)N1CC[C@@H](N2CCC(=C3c4sccc4CCn4ccnc43)CC2)C[C@H]1Cc1ccccc1 (relative stereo) [Compound 6] | – | % inhibition of the response to 10^-9 M substance P [1, 4]: 93.9%
O=C(c1cccs1)N1CCC(N2CCC(C3c4ccccc4Cn4c3nc3ccccc34)CC2)CC1Cc1ccccc1 (centres unmarked) [Compound 91] | 9.2% | –
O=C(c1cc(C(F)(F)F)cc(C(F)(F)F)c1)N1CC[C@H](N2CCC3(CC2)c2ccccc2CCn2ccnc23)C[C@@H]1Cc1ccccc1 (relative stereo) [Compound 117] | – | minimal effective dose [2, 5]: 2.5 mg/kg; minimal effective dose [2, 6]: 2.5 mg/kg; minimal effective dose [2, 7]: 2.5 mg/kg; minimal effective dose [2, 8]: 40 mg/kg; minimal effective dose [2, 9]: 10 mg/kg
CC(C(=O)N1CCC(N2CCC(=C3c4ccccc4CCn4ccnc43)CC2)CC1Cc1ccccc1)c1ccccc1 (centres unmarked) [Compound 85] | 1.8% | –
O=C(c1cc(C(F)(F)F)cc(C(F)(F)F)c1)N1CCC(N2CCC(C3c4ccccc4CCn4c3nc3ccccc34)CC2)CC1Cc1ccc(F)c(F)c1 (centres unmarked) [Compound 67] | 64.4% | –
Cc1cc(C)cc(C(=O)N2CCC(N3CCC(C4c5ccccc5Cn5c4nc4ccccc45)CC3)CC2Cc2ccccc2)c1 (centres unmarked) [Compound 69] | 8% | –

SMILES | % inhibition of the response to 10^-9 M substance P [1, 3] | other results
O=C(c1cc(C(F)(F)F)cc(C(F)(F)F)c1)N1CC[C@H](N2CCC(C3c4ccccc4CCn4c3nc3ccccc34)CC2)C[C@H]1Cc1ccccc1 (some centres unmarked) [Compound 13] | 74.2% | –
Cc1cc(C)cc(C(=O)N2CC[C@H](N3CCC(=C4c5ccccc5CCn5c4nc(CO)c5CO)CC3)C[C@@H]2Cc2ccccc2)c1 (relative stereo) [Compound 61] | 7.5% | –
COC(=O)c1cnc2n1CCc1ccsc1C2=C1CCN([C@@H]2CCN(C(=O)c3cc(C)cc(C)c3)[C@@H](Cc3ccccc3)C2)CC1 (relative stereo) [Compound 36] | 23.7% | –
Cc1cc(C)cc(C(=O)N2CCC(N3CCC(C4c5ccccc5CCn5c4nc4ccccc45)CC3)CC2Cc2ccccc2)c1 (centres unmarked) [Compound 65] | 27.3% | –
Cc1cc(C)cc(C(=O)N2CC[C@@H](N3CCC(=C4c5ccccc5CCn5c(C=O)cnc54)CC3)C[C@H]2Cc2ccccc2)c1 (relative stereo) [Compound 24] | 38.3% | –
O=C(c1ccc2ncsc2c1)N1CCC(N2CCC(C3c4ccccc4Cn4c3nc3ccccc34)CC2)CC1Cc1ccccc1 (centres unmarked) [Compound 96] | 17.3% | –
O=C(Nc1cc(C(F)(F)F)cc(C(F)(F)F)c1)N1CC[C@@H](N2CCC(=C3c4ccccc4CCn4ccnc43)CC2)C[C@@H]1Cc1ccccc1 (relative stereo) [Compound 80] | 10.9% | –
Cc1cc(C)cc(C(=O)N2CCC(N3CCC(=C4c5ccccc5CCn5c(C)cnc54)CC3)CC2Cc2ccccc2)c1 (centres unmarked) [Compound 28] | 37.4% | –
Cc1cc(C)cc(C(=O)N2CC[C@@H](N3CCC(C4c5ccccc5Cn5ccnc54)CC3)C[C@@H]2Cc2ccccc2)c1 (some centres unmarked) [Compound 109] | 13.5% | –
Cc1cc(C)cc(C(=O)N2CC[C@@H](N3CCC4(CC3)c3ccccc3CCn3ccnc34)C[C@H]2Cc2ccccc2)c1 (relative stereo) [Compound 119, (±)-cis-4-(5,6-dihydrospiro[11H-imidazo[2,1-b][3]benzazepine-11,4'-piperidin]-1-yl)-1-(3,5-dimethylbenzoyl)-2-(phenylmethyl)piperidine] | 9.3% | –
Cc1cc(C)cc(C(=O)N2CC[C@H](N3CCC(=C4c5ccccc5CCn5c4nc4ccccc45)CC3)C[C@@H]2Cc2ccccc2)c1 (relative stereo) [Compound 45] | 7.9% | –
O=C(c1cc(C(F)(F)F)cc(C(F)(F)F)c1)N1CC[C@H](N2CCC(=C3c4ccccc4CCn4c(Cl)cnc43)CC2)C[C@H]1Cc1ccccc1 (relative stereo) [Compound 58] | 91.5% | –
O=C(c1cc(C(F)(F)F)cc(C(F)(F)F)c1)N1CCC(N2CCC(C3c4ccccc4CCn4c3nc3ccccc34)CC2)CC1Cc1ccccc1 (centres unmarked) [Compound 12] | – | % inhibition of the response to 10^-9 M substance P [1, 4]: 93.2%
O=C(c1ccc(Cl)c(Cl)c1)N1CC[C@@H](N2CCC(C3c4ccccc4Cn4c3nc3ccccc34)CC2)C[C@@H]1Cc1ccccc1 (some centres unmarked) [Compound 103] | 8.3% | –
O=C(c1ccco1)N1CC[C@@H](N2CCC(=C3c4ccccc4CCn4ccnc43)CC2)C[C@@H]1Cc1ccccc1 (relative stereo) [Compound 77] | 3.2% | –
O=C(c1cc(C(F)(F)F)cc(C(F)(F)F)c1)N1CC[C@@H](N2CCC3(CC2)c2ccccc2CCn2ccnc23)C[C@@H]1Cc1ccccc1 (relative stereo) [Compound 118] | – | minimal effective dose [2, 5]: 10 mg/kg; minimal effective dose [2, 6]: 10 mg/kg; minimal effective dose [2, 7]: 10 mg/kg; minimal effective dose [2, 8]: 10 mg/kg; minimal effective dose [2, 9]: 10 mg/kg
